Laboratory results reported in patent US12589099B2 (priority 2021, dated 2026).

Legend:
[1] = test system: moderate traumatic brain injury (TBI) induced by controlled cortical impact (CCI); assay: Right forelimb adhesive removal test after TBI; type: in vivo, male Wistar rats
Method: FIG. 2: The figure illustrates functional tests that are carried out on healthy (sham surgery) no treatment, vehicle treated and ALPHA-1062 treated rats to assess sensorimotor and cognitive function after TBI. Sensimotor function tests. a) The figure depicts tests to assess the modified neurological severity score (mNSS). […] The animal is required to balance over a grid and the frequency of steps missing the grid are counted. This test assesses the functionality of the injured parietal cortex of the rat's brain. c) The adhesive removal test consists of applying adhesive tape on each forepaw of the animal and measuring the time-to-contact and the time-to-remove them. This behavior requires correct paw and mouth sensitivity (time-to-contact) and correct dexterity (time-to-remove). Cognitive function tests: a) This picture illustrates the Morris water maze that comprises that a rat is placed in a large circular pool (picture on the left) and is required to find an invisible platform that allows it to escape the water by using various visuo-spatial cues. This test is used to study spatial learning and memory and assesses hippocampal and select cortical brain region function. Usually, the path of the rat through the pool is tracked (picture on the right) and the time spend in the proximity of the platform as well as the time needed until the platform is found by the rat are measured. b) For the new/novel object recognition (NOR) test, after a habituation time in the test space (picture on far left) rats are given the opportunity to explore two identical objects (A) for a predetermined period of time (picture in the middle). After a delay, the animals are then presented with two objects to explore, one of which is the same as in the first exploration trial (A), the other a new object (B) (picture on the right). Depending on the length of the delay between the two trials or depending on the extend of cortical damage, the rats will either explore the novel object for a greater time period, indicating memory for the familiar object, or will explore the novel and familiar objects for the same amount of time, indicating a lack of recall or loss of memory for the familiar object presented during the initial trial.
Young adult (2-3 months) male Wistar rats were subjected to a moderate traumatic brain injury (TBI) induced by controlled cortical impact (CCI). […]
In the adhesive removal test, an adhesive tape is applied to the right forepaw of an animal. Both the time-to-contact the adhesive (sensory perception), as well as the time-to-remove the adhesive (locomotor skill) are assessed by this test.

[2] = test system: DCX+ neuroblasts in the dentate gyrus of the hippocampus; assay: Doublecortin (DCX) IHC, neuroblasts in the dentate gyrus 35 days post-TBI; type: in vivo, male Wistar rats; conditions: 4.5 mg/kg IN twice daily; 35 days following TBI
Description: Young adult (2-3 months) male Wistar rats were subjected to a moderate traumatic brain injury (TBI) induced by controlled cortical impact (CCI). Animal models of TBI including the CCI model and functional tests have been described in detail in peer reviewed publications (Xiong et al., 2013, Nat Rev Neurosci.; Zhang et al., 2016, J Neurosurg.; Zhang et al., 2016, Neurochem Int.; Zhang et al., 2021, J Neurotrauma). Injury consisted of a single impact at 4.0 m/sec, 2.5 mm deformation to the left parietal cortex. In addition, a group of animals was left healthy/not injured to serve as a healthy control.
The substance used in this study was ALPHA-1062 at 4.5 mg/kg. As control treatment (vehicle) purified water was administered intranasally (IN). […]
Histological assessment was performed including quantitative image analysis protocols; followed by statistical analysis of the data. […]
For cell counting and quantitation NeuN+ cells were examined in the ipsilateral cortex, DG, CA1, and CA3 regions of the ipsilateral hippocampus. […] The number of BrdU+ cells (red-fluorophore) and NeuN (green-fluorophore)/BrdU-colabeled cells (yellow after merge) were counted. […] The immune-positive cells were determined and divided by the measured areas and presented as numbers per square mm. […]

In the case of `COc1ccc2c3c1O[C@H]1C[C@@H](OC(=O)c4ccccc4)C=C[C@@]31CCN(C)C2` [ALPHA-1062, (4aS,6R,8aS)-5,6,9,10,11,12-hexahydro-3-methoxy-11-methyl-4aH-[1]benzofuro[3a,3,2-ef][2]benzazepin-6-ol benzoate], the “adhesive removal (right forelimb) compared to vehicle” value ([1]; 4.5 mg/kg IN twice daily, from day 7 (D7) on (FIG. 6)) is reported as “significantly better”, the “adhesive removal (right forelimb) compared to uninjured (sham) animals” value ([1]; 4.5 mg/kg IN twice daily, starting on day 7 (D7), remainder of study) is reported as “as well as the uninjured (sham) animals” and the “Adhesive Removal, performance over SHAM” value ([1]; rats after TBI, compared to healthy sham animals) is reported as “equivalent to”. The “Adhesive Removal, performance over VEHICLE” value ([1]; rats after TBI, compared to vehicle treatment) was “superior”, the “DCX positive cells in dentate gyrus compared to sham surgery cohort” value [2] was “comparable numbers” and the “DCX positive cells in dentate gyrus compared to vehicle” value [2] was “higher number of DCX positive cells”.
